{"source": "patent EP0943606A1", "about": "“BENZENESULFONAMIDE DERIVATIVES AND DRUGS CONTAINING THE SAME” (HOKURIKU SEIYAKU CO., LTD., priority 1996, dated 1998)", "key": {"[1]": {"molecular_target": "T1, thromboxane A2 / prostaglandin H2 receptor (Cavia porcellus, UniProt A0A286Y4I8)", "T1 construct": "tracheas were isolated from male Hartley guinea-pigs, and spiral specimens of approximately 2 cm length were prepared; from tissue; host or cells: isolated guinea-pig trachea (spiral strips)", "T1 sequence (A0A286Y4I8 1-347)": "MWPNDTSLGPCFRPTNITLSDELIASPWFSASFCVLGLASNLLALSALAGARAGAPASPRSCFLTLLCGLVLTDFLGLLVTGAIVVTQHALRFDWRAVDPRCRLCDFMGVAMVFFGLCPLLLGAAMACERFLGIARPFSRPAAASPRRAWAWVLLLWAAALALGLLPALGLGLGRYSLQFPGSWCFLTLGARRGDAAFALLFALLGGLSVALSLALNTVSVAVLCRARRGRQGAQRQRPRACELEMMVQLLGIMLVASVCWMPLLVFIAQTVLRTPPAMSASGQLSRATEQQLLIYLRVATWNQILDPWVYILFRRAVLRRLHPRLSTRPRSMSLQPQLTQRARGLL", "assay": "Thromboxane A2 antagonistic effect (isolated trachea, U-46619 concentration-response curves, Schild)", "set-up": "species or system male Hartley guinea-pigs", "conditions": "isolated guinea-pig trachea, contraction by U-46619, test compound treatment 5 minutes, indomethacin 3 × 10^-6M, method of Schild", "protocol": "According to an ordinary method, tracheas were isolated from male Hartley guinea-pigs, and spiral specimens of approximately 2 cm length were prepared. These specimens were suspended in organ baths that contained Krebs-Henseleit solution at 37°C under a resting tension of 1.5 g, and the changes in isometric tension were recorded. The first concentration-response curves were obtained by cumulative applications of 1 × 10^-9 to 3 × 10^-7M of U-46619 (Cayman, thromboxane A2 / prostaglandin H2 receptor agonist) in the organ baths. After treatments with test compounds at adequate concentrations for 5 minutes, the second concentration-response curves were obtained in the same manner as the first applications. pKB values were calculated using these two concentration-response curves according to the method of Schild [Pharmacological Review, Vol. 9, 242 (1957)]. Indomethacin (3 × 10^-6M, Sigma) was added beforehand to the organ bath to eliminate possible affections by thromboxane A2 and prostaglandin produced endogenously [Japan J. Pharmacol., Vol. 60, 227 (1992)]."}, "[2]": {"system": "bronchoconstriction induced by leukotriene D4", "assay": "Inhibitory effect on bronchoconstriction induced by leukotriene D4 (Konzett-Roessler)", "format": "in vivo, Male Hartley guinea-pigs", "conditions": "Cavia porcellus; oral administration 2 hours before leukotriene D4 (1 µg/kg, cervical vein), anesthetized guinea-pigs, indomethacin and propranolol pretreated", "protocol": "Airway resistance was evaluated according to the method of Konzett-Roessler [Naunyn-Schmiedberg's Arch. Exp. Path. Pharmak., Vol. 195, 71 (1940)]. Male Hartley guinea-pigs fasted beforehand for 24 hours were anesthetized with urethane, and then overflowed air volume was measured under artificial ventilation as an index of bronchoconstriction. Various doses of test compounds suspended in 5% gum Arabic were administered orally, and after 2 hours, leukotriene D4 (1 µg/kg; ULTRA FINE) was administered through the cervical vein. Then, values at 2 minutes were measured when maximum responses were obtained. Inhibitory rates compared to the control group were calculated based on the response rate normalized by the overflowed volume at complete closure as 100% bronchoconstriction rate, and the 50% inhibitory doses (ED50 values) were calculated using dose-inhibitory rate curves. Indomethacin (2mg/kg, i.v.) and propranolol (1mg/kg, i.v.) were administered at 10 minutes and 5 minutes before the administration of leukotriene D4, respectively. […]"}, "leukotriene D4": {"molecular_target": "T2, leukotriene D4 (Cavia porcellus, UniProt Q2NNR5)", "T2 construct": "tracheas were isolated from male Hartley guinea-pigs, and spiral specimens of approximately 2 cm length were prepared; from tissue; host or cells: isolated guinea-pig trachea (spiral strips)", "T2 sequence (Q2NNR5 1-340)": "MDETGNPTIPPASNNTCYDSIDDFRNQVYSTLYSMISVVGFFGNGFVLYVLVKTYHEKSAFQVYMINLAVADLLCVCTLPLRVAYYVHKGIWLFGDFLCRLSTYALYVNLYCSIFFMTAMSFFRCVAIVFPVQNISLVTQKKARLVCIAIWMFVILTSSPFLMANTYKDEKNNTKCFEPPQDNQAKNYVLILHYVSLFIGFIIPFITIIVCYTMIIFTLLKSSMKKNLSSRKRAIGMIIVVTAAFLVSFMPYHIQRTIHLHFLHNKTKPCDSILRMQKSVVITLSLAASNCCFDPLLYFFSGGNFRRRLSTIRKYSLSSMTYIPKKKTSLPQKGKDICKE", "assay": "Leukotriene D4 antagonistic effect (isolated trachea, leukotriene D4 concentration-response curves, Schild)", "set-up": "species or system male Hartley guinea-pigs", "conditions": "isolated guinea-pig trachea, contraction by leukotriene D4, test compound treatment 30 minutes, indomethacin 1 × 10^-6M, method of Schild", "protocol": "According to an ordinary method, tracheas were isolated from male Hartley guinea-pigs, and spiral specimens of approximately 2 cm length were prepared. These specimens were suspended isotonically in organ baths that contained Krebs-Henseleit solution at 37°C under a resting tension of 0.5g. After contractions with acetylcholine (1 × 10^-5M; Ovisot for injection, Daiichi Seiyaku), and the first concentration-response curves were obtained by cumulative applications of 10^-10 to 10^-8M of leukotriene D4 (ULTRA FINE) in the organ baths. After treatments with test compounds at adequate concentrations for 30 minutes, the second concentration-response curves were obtained in the same manner as the first applications. pKB values were calculated using these two concentration-response curves according to the method of Schild [Pharmacological Review, Vol. 9, 242 (1957)]. Indomethacin (1 × 10^-6M, Sigma) was added beforehand to the organ bath to eliminate possible affections by thromboxane A2 and prostaglandin produced by stimulus of leukotriene D4 [Japan J. Pharmacol., Vol. 60, 227 (1992)]. […]"}, "[3]": {"system": "bronchoconstriction induced by U-46619", "assay": "Inhibitory effect on bronchoconstriction induced by U-46619 (Konzett-Roessler)", "format": "in vivo, Male Hartley guinea-pigs", "conditions": "Cavia porcellus; 0.3 mg/kg orally, 2 hours before U-46619 (4 µg/kg, cervical vein), anesthetized guinea-pigs, compared to control group; read-out: Inhibition rate (%)", "protocol": "Airway resistance was evaluated according to the method of Konzett-Roessler [Naunyn-Schmiedberg's Arch. Exp. Path. Pharmak., Vol. 195, 71 (1940)]. Male Hartley guinea-pigs (about 400g wt.) were anesthetized with urethane (1.5g/kg, i.p.) and ventilated by an artificial respirator (Model 683; Harvard). At the same time, overflowed air volume above the pressure of about 12cm H2O was measured by using a sensor (Model 7020; Ugo Basile) and the value was used as an index of bronchoconstriction. 0.3 mg/kg (5 ml/kg) of test compounds suspended in 5% gum Arabic was administered orally to the guinea-pigs fasted beforehand for 24 hours. After 2 hours, U-46619 (4 µg/kg; Cayman) was administered through the cervical vein, and then maximal response was measured. Inhibitory rates compared to the control group were calculated based on the response rate normalized by the complete closure as 100%. […]"}, "human liver microsomes": {"system": "human liver microsomes", "assay": "In vitro metabolism test", "format": "in vitro ADME", "conditions": "0.4mg protein/ml human liver microsomes, 0.02 mM test compound, NADPH-generating system, 37°C for 30 minutes, HPLC", "protocol": "0.05 mM EDTA-0.1M phosphate buffer (pH 7.4), distilled water, 0.4mg protein/ml human liver microsomes and 0.02 mM test compound were mixed in a test tube under ice-cooling. After the mixture was shaken at 37°C for 2 minutes beforehand, the mixture was added with a ready-mix of NADPH-generating system and then shaken at 37°C for 30 minutes. After the incubation, the reaction was stopped by cooling with ice. The mixture was added with acetonitrile and well mixted, and then centrifuged at 3000 rpm for 10 minutes. The resulting supernatant was subjected to HPLC measurement, and the residual rate of test compound was calculated from the ratio of a peak area of an unchanged compound in the reaction sample in comparison with a non-reaction mixture. Preparations of reagents and reaction mixtures were carried out by referring to Shin Seikagaku Koza, Vol. 5: Biological oxidation and drug metabolism edited by The Japanese Biochemical Society. […]"}}}
{"compound": "CCCCCC(NS(=O)(=O)c1ccc(Cl)cc1)c1ccc(CCCC(=O)O)cc1", "note": "(centres unmarked) [Reference compound 1, 4-[4-[1-(4-Chlorophenylsulfonylamino)hexyl]phenyl]butyric acid, reference compound]", "values": [{"measurement": "Kb", "setting": "[1]", "value": 1, "unit": "nM"}, {"measurement": "ED50", "setting": "[2]", "value": 8.1, "unit": "mg/kg"}, {"measurement": "Kb", "setting": "leukotriene D4", "value": 200, "unit": "nM"}, {"measurement": "inhibition in vivo at 0.3 mg/kg", "setting": "[3]", "value": 85, "unit": "%"}, {"measurement": "Residual rate (%)", "setting": "human liver microsomes", "value": 53, "unit": "%"}]}
